From the supplement of paper PMC10307832

These cell lines were tested with CC(C)N(CCCNC(=O)Nc1ccc(C(C)(C)C)cc1)C[C@H]1O[C@@H](n2ccc3c(N)ncnc32)[C@H](O)[C@@H]1O + Cc1nc(Nc2ncc(C(=O)Nc3c(C)cccc3Cl)s2)cc(N2CCN(CCO)CC2)n1 [Dasatinib] (partner 0.075 µM) (assay: relative viability (nuclei count vs DMSO), 5 days (fraction); higher = more cells survive). Settings: first compound 0.08 µM.
Outline: (§1)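 Relative viability was taken as the ratio of nuclei in treated wells to nuclei in vehicle wells. Lung cancer cell lines in 1536-well plates received compounds by pin tool one day after seeding, either one drug alone or a fixed anchor-drug dose plus five library-drug doses (not always all listed) in √10 steps. Nuclei were counted on 4× images after 5 days of treatment, and values are medians of duplicate plates.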

Cell Line | relative viability
NCI-H1792 | 0.768
NCI-H1793 | 0.368
NCI-H1563 | 0.447
NCI-H1944 | 0.197
ABC-1 | 0.62
NCI-H358 | 0.172
NCI-H727 | 0.381

Same assay, conditions: first compound 0.253 µM

Cell Line | relative viability
NCI-H2342 | 0.29
NCI-H1623 | 0.563
PC-14 | 0.292
NCI-H1650 | 0.379
NCI-H2009 | 0.281
NCI-H520 | 0.145
PC-3 [JPC-3] | 0.971
LCLC-103H | 0.424
NCI-H647 | 0.15
NCI-H2228 | 0.457
EMC-BAC-2 | 0.36
NCI-H2087 | 1.03
HCC-366 | 0.647
NCI-H1666 | 0.796
NCI-H650 | 0.425
LK-2 | 0.294
NCI-H2126 | 0.582

Cell Line | relative viability
SK-MES-1 | 0.355
H3255 | 0.354
COR-L23 | 0.5
COR-L 105 | 0.347
LOU-NH91 | 0.579
ChaGo-K-1 | 0.672
NCI-H2170 | 0.478
NCI-H522 | 0.839
SW 900 | 0.542
NCI-H1395 | 0.433
NCI-H1792 | 0.785
NCI-H1563 | 0.42
NCI-H1944 | 0.197
ABC-1 | 0.599
NCI-H358 | 0.158
NCI-H727 | 0.427

Same assay, conditions: first compound 0.8 µM

Cell Line | relative viability
NCI-H2342 | 0.289
NCI-H1623 | 0.571
PC-14 | 0.233
NCI-H2009 | 0.273
NCI-H520 | 0.151
PC-3 [JPC-3] | 0.884
LCLC-103H | 0.449
NCI-H2228 | 0.502
EMC-BAC-2 | 0.297
NCI-H2087 | 0.77
HCC-366 | 0.442
NCI-H1666 | 0.799
NCI-H650 | 0.468
LK-2 | 0.267
NCI-H2126 | 0.603
SK-MES-1 | 0.356
H3255 | 0.434
COR-L23 | 0.457
COR-L 105 | 0.308
LOU-NH91 | 0.485
ChaGo-K-1 | 0.556
NCI-H2170 | 0.55
NCI-H522 | 0.896
NCI-H1395 | 0.392
NCI-H1792 | 0.871
NCI-H1793 | 0.355
NCI-H1563 | 0.488
NCI-H1944 | 0.257
NCI-H358 | 0.171
NCI-H727 | 0.345

Same assay, conditions: first compound 2.53 µM

Cell Line | relative viability
NCI-H2342 | 0.321
NCI-H1623 | 0.537
PC-14 | 0.247
NCI-H1650 | 0.275
NCI-H2009 | 0.288
NCI-H1993 | 0.768
NCI-H520 | 0.293
PC-3 [JPC-3] | 0.892
LCLC-103H | 0.428
NCI-H647 | 0.205
NCI-H2228 | 0.416
EMC-BAC-2 | 0.359
NCI-H2087 | 1.04
HCC-366 | 0.587
NCI-H1666 | 0.813
NCI-H650 | 0.434
LK-2 | 0.368
NCI-H2126 | 0.601

Cell Line | relative viability
SK-MES-1 | 0.475
H3255 | 0.282
COR-L23 | 0.474
COR-L 105 | 0.31
LOU-NH91 | 0.553
ChaGo-K-1 | 0.552
NCI-H2170 | 0.591
NCI-H522 | 0.839
SW 900 | 0.605
NCI-H1395 | 0.441
NCI-H1792 | 0.71
NCI-H1793 | 0.36
NCI-H1563 | 0.434
NCI-H1944 | 0.243
ABC-1 | 0.712
NCI-H358 | 0.174
NCI-H727 | 0.393

Same assay, conditions: first compound 8 µM

Cell Line | relative viability
NCI-H2342 | 0.277
NCI-H1623 | 0.521
PC-14 | 0.275
NCI-H1650 | 0.349
NCI-H2009 | 0.295
NCI-H1993 | 0.718
NCI-H520 | 0.229
PC-3 [JPC-3] | 0.868
LCLC-103H | 0.443
NCI-H647 | 0.212
NCI-H2228 | 0.613
EMC-BAC-2 | 0.37
NCI-H2087 | 0.948
HCC-366 | 0.536
NCI-H1666 | 0.705
NCI-H650 | 0.438
LK-2 | 0.302
NCI-H2126 | 0.554

Cell Line | relative viability
SK-MES-1 | 0.316
H3255 | 0.367
COR-L23 | 0.442
COR-L 105 | 0.391
LOU-NH91 | 0.529
ChaGo-K-1 | 0.497
NCI-H2170 | 0.562
NCI-H522 | 0.809
SW 900 | 0.54
NCI-H1395 | 0.463
NCI-H1792 | 0.783
NCI-H1793 | 0.38
NCI-H1563 | 0.424
NCI-H1944 | 0.222
ABC-1 | 0.524
NCI-H358 | 0.165
NCI-H727 | 0.333

What follows are cell lines tested with CC(C)N(CCCNC(=O)Nc1ccc(C(C)(C)C)cc1)C[C@H]1O[C@@H](n2ccc3c(N)ncnc32)[C@H](O)[C@@H]1O + O=C(CCCCCCC(=O)Nc1ccccc1)NO [Vorinostat] (partner 1 µM) in the same assay as above. Settings: first compound 0.08 µM.
Outline: as §1

Cell Line | relative viability
NCI-H2342 | 0.708
PC-14 | 0.71
NCI-H1650 | 0.451
NCI-H2009 | 0.728
NCI-H1993 | 0.663
NCI-H520 | 0.849
PC-3 [JPC-3] | 0.813
LCLC-103H | 0.717
NCI-H647 | 0.415
NCI-H2228 | 0.593
EMC-BAC-2 | 0.465
NCI-H2087 | 0.681
HCC-366 | 0.439
NCI-H1666 | 1.1
